One experiment deals with cloned human NR1/NR2B ion channels (Homo sapiens (Human), UniProt Q05586+Q13224). Put plainly: HNR2BC: calcium influx assay on cloned human NR1/NR2B ion channels expressed in HEK cells. The note with it: HEK cells hNR1/NR2B, 100 μM glutamate + 100 μM glycine, 3 parameter plot. Format: cell-based. The method, then: HNR2BC: Effects of Test Articles on Cloned Human NR1/NR2B Ion Channels Expressed in Mammalian Cells
Chain of cloned human NR1/NR2B ion channels (Q13224 27-1484, other chains not shown): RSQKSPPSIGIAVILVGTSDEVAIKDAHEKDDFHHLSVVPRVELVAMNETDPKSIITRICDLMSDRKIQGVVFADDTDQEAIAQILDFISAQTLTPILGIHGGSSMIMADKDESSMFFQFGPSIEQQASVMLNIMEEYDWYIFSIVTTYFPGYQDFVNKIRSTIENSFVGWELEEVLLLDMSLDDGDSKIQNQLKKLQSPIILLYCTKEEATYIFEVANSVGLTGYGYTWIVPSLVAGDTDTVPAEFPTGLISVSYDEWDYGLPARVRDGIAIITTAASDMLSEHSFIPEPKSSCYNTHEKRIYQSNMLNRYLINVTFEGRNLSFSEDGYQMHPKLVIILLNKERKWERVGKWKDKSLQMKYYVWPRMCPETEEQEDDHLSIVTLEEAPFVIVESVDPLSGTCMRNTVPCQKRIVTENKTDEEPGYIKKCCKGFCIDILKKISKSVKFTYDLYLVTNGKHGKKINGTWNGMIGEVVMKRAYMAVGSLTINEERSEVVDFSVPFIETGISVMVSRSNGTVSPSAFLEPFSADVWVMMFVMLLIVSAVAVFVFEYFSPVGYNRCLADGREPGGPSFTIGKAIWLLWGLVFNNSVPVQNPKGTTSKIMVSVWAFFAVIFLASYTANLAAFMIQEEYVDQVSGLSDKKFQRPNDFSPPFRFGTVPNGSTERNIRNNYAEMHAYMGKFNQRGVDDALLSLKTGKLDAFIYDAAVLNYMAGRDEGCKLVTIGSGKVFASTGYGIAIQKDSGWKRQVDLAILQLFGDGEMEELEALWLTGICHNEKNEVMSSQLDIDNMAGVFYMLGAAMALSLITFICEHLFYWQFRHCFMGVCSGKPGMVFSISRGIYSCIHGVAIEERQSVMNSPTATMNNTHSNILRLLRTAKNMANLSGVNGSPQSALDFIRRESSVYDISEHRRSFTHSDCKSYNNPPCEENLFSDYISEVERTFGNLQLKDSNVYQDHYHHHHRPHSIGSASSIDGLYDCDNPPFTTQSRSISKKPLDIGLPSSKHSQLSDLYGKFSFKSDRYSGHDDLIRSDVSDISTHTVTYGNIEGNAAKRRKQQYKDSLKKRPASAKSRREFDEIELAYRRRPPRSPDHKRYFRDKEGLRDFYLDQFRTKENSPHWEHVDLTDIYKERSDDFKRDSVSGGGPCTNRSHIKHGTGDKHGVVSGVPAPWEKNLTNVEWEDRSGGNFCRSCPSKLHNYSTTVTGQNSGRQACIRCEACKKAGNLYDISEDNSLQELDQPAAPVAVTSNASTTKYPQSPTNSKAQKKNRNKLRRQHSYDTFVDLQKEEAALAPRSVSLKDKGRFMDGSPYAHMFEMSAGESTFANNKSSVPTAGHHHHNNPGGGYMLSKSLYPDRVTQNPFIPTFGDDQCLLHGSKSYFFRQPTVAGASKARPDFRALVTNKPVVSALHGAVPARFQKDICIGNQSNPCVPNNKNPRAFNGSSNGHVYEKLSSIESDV
The ability of test compounds to act as an antagonist of NR1/NR2B were evaluated with a calcium influx assay (Calcium 5 Assay Kit, Molecular Devices).
For the antagonist assessment, NR1/NR2B was activated with the positive control agonist (Mg^2+-free HBPS+100 μM glutamic acid+100 μM glycine). The effect of each test article to inhibit the signal was examined after agonist stimulation and compared to the positive control antagonist (MK-801).
A HEK cell line, stable transfected with hNR1/NR2B was used. This tetracycline inducible cell line is transfected with GRIN1 (GeneBank accession number NM 007327.2) and GRIN2B (GeneBank accession number NM_000834.3.). The cells were cultured in cell culture flasks with DMEM/F12 supplemented with 10% FCS, 1% PenStrep and a selection of additional antibiotics.
Forty-Eight (48) hours before the assay the cells were plated into 96-well black well, flat clear bottom microtiter plates at a density of 50000 cells/well. Twenty-Four (24) hours later the receptor expression was induced by the addition of 1 μg/ml tetracycline in the presence of 2 mM ketamine and 200 μM 7-CKA. After 24 h of receptor induction the plates were used for the assay.
The medium was removed and the cells were loaded with 200 μl loading buffer (Molecular Devices) in Mg2+-free HBPS containing 100 μM 7-CKA at 37° C. for one (1) hour.
The test compounds were then solubilized in 100% DMSO and diluted to yield eight (8) different concentrations in 100% DMSO. A 96 well drug plate was prepared by diluting with water and glycine/glutamate to a 5-fold of final test concentration. Fluorescence intensity of the cells in the plate was measured in a FlexStation using an excitation wavelength of 485 nm and an emission wavelength of 525 nm. Twenty (20) seconds after starting the recordings the compounds together with the agonists glycine (100 μM) and glutamate (100 μM) were added into the wells and the fluorescence measured for ninety (90) seconds in summary.
The IC50 values provided in the paragraph below were determined using a 3 parameter plot.
Broadly, the IC50 is the point on the concentration scale where inhibition reaches its midpoint. For `CC(C)c1nccn1Cc1cn(-c2ccc(Cl)cc2)nn1` [Example 23, 1-(4-Chloro-phenyl)-4-(2-isopropyl-imidazol-1-ylmethyl)-1H-[1,2,3]triazole], the IC50 came out at 17.5 µM.

Consider `Cc1nccn1Cc1cn(-c2ccc(F)c(C(F)F)c2)nn1` [Example 81, 1-(3-Difluoromethyl-4-fluoro-1-phenyl)-4-(2-methyl-imidazol-1-ylmethyl)-1H-[1,2,3]triazole], for which the IC50 came out at 3.79 µM.

As for `Fc1ccc(-n2cc(Cn3ccnc3C3CC3)nn2)cc1C(F)F` [Example 82, 4-(2-Cyclopropyl-imidazol-1-ylmethyl)-1-(3-difluoromethyl-4-fluoro-phenyl)-1H-[1,2,3]triazole], the half-maximal inhibitory concentration (IC50) was 4.89 µM.

Consider `CC(C)c1nccn1Cc1cn(-c2ccc(F)c(C(F)F)c2)nn1` [Example 84, 1-(3-Difluoromethyl-4-fluoro-phenyl)-4-(2-isopropyl-imidazol-1-ylmethyl)-1H-[1,2,3]triazole], for which the IC50 is 4.2 µM.

For `Cc1nccn1Cc1cn(-c2ccc(Cl)c(OC(F)F)c2)nn1` [Example 93, 1-(4-Chloro-3-difluoromethoxy-phenyl)-4-(2-methyl-imidazol-1-ylmethyl)-1H-[1,2,3]triazole], the IC50 came to 0.41 µM.

Regarding `OCCc1nccn1Cc1cn(-c2ccc(F)c(OC(F)F)c2)nn1` [Example 101, 1-(3-Difluoromethoxy-4-fluoro-phenyl)-4-[2-(2-hydroxy-ethyl)-imidazol-1-ylmethyl]-1H-[1,2,3]triazole], the IC50 was 1.65 µM.

For `Cn1nccc1Cc1cn(-c2ccc(F)c(Cl)c2)nn1` [Example 109, 1-(3-Chloro-4-fluoro-phenyl)-4-(2-methyl-2H-pyrazol-3-ylmethyl)-1H-[1,2,3]triazole], the IC50 came out at 109 µM.

For the compound `Nc1nccn1Cc1cn(-c2ccc(Cl)c(C(F)F)c2)nn1` [Example 113A, 4-(2-amino-imidazol-1-ylmethyl)-1-(4-chloro-3-difluoromethyl-phenyl)-1H-[1,2,3]triazole], the IC50 is 0.84 µM.

As to `Nc1nccn1Cc1cn(-c2ccc(F)c(C(F)F)c2)nn1` [Example 113B, 4-(2-amino-imidazol-1-ylmethyl)-1-(4-fluoro-3-difluoromethyl-phenyl)-1H-[1,2,3]triazole], the IC50 was 0.66 µM.

Consider `CC(F)(F)c1cc(-n2cc(Cn3ccnc3N)nn2)ccc1F` [Example 114], for which the IC50 amounted to 2.34 µM.

Another experiment concerns Male NMRI mice. Put plainly: Forced swim test in mice. To be noted: p.o. 30 minutes before the test. Format: in vivo. As to the method:
The method, which detects antidepressant activity, follows that described by Porsolt et al (Arch. Int. Pharmacodyn., 229, 327-336, 1977), which is incorporated by reference herein in its entirety.
Mice forced to swim in a situation from which they cannot escape rapidly become immobile. Antidepressants decrease the duration of immobility.
Male NMRI mice (Janvier, France), weighing 20-30 g, were individually placed in a cylinder (height=24 cm; diameter=13 cm) containing 10 cm water (22° C.) from which they cannot escape.
The mice were placed in the water for 6 minutes and the duration of immobility during the last 4 minutes was measured. The latency to the first bout of immobility was also recorded starting from the beginning of the test. 10 mice were studied per group. The test substance was administered p.o. 30 minutes before the test and compared with vehicle control group. The test was performed blind.
Consider `Fc1ccc(-n2cc(Cn3ccnc3C3CC3)nn2)cc1C(F)F` [Example 82, 4-(2-Cyclopropyl-imidazol-1-ylmethyl)-1-(3-difluoromethyl-4-fluoro-phenyl)-1H-[1,2,3]triazole], for which the “Minimum effective dose (mg/kg p.o.)” value was 60 mg/kg.

In the case of `OCCc1nccn1Cc1cn(-c2ccc(F)c(OC(F)F)c2)nn1` [Example 101, 1-(3-Difluoromethoxy-4-fluoro-phenyl)-4-[2-(2-hydroxy-ethyl)-imidazol-1-ylmethyl]-1H-[1,2,3]triazole], the “Minimum effective dose (mg/kg p.o.)” value is given as >30 mg/kg.

The values above are taken from patent US9981950B2, “Triazoles as NR2B receptor inhibitors” (Janssen Pharmaceuticals, Inc., priority 2014, dated 2018).
